The record followed here is paper PMC8286840, “Identifying SARS-CoV-2 antiviral compounds by screening for small molecule inhibitors of Nsp3 papain-like protease” (Biochemical Journal, 2021).

Structures are written as SMILES. Counter-ions that a name gives are not always drawn. Like-named read-outs stand apart in the source and are kept apart here.

In test [1] the target is T1, SARS-CoV-2 PLpro (nsp3 1564–1878) (Severe acute respiratory syndrome coronavirus 2, UniProt P0DTD1). In words: biochemical. Also noted: FRET-quenched peptide (Pro3) cleavage by PLpro, 10 min pre-incubation, slope over 20 min, normalised to no-compound control. Conditions: read-out: % of control remaining.
Test [2] deals with T1, SARS-CoV-2 PLpro (nsp3 1564–1878). In words: biochemical. Further details: FRET-quenched peptide (Pro3) cleavage by PLpro, 10 min pre-incubation, slope over 20 min, normalised to no-compound control. The conditions noted are these: read-out: % of control remaining. This is another data set of the same source.
Experimental: The plates were organized with columns 3–22 containing the compounds; the remaining columns were used for reaction controls including substrate only and substrate with enzyme but no compound (Figure 3Aii). The PLpro enzyme was pre-incubated with the compounds for 10 min, and then the reaction was initiated by the addition of substrate. […] We incubated the inhibitors with PLpro before the enzymatic reaction so that the slow-binding inhibitors will not be missed out [21]. […] Fluorescence was read on a Spark multimode microplate reader (Tecan) with an excitation wavelength at 330 nm and emission wavelength at 420 nm. […] An amount of 5 µl of the enzyme was pre-incubated with compounds for 10 min before the addition of 15 µl substrate. Fluorescence was monitored at 2 min for 20 min with 3 min intervals giving a total of seven readings.

Turning to `CCc1nn(CCCN2CCN(c3cccc(Cl)c3)CC2)c(=O)n1CCOc1ccccc1` [2-{3-[4-(3-chlorophenyl)-1-piperazinyl]propyl}-5-ethyl-4-(2-phenoxyethyl)-2,4-dihydro-3H-1,2,4-triazol-3-one hydrochloride], in test [1] (Well no.=5691, high concentration screen), the remaining activity at 3.75 µM came out at 96.7%. Further, in test [2] (Well no.=5691, low concentration screen), the remaining activity at 1.25 µM amounted to 99.4%.

For the compound `OCCOc1ccc(/C(=C(/CCCl)c2ccccc2)c2ccccc2)cc1` [2-{4-[(1Z)-4-chloro-1,2-diphenyl-1-butenyl]phenoxy}ethanol], in test [1] (Well no.=5956, high concentration screen), the remaining activity at 3.75 µM worked out at 93.6%. Further, the remaining activity at 1.25 µM in test [2] (Well no.=5956, low concentration screen) worked out at 92.3%.

Take `Cc1ccc(OCCSc2ncccn2)c(Br)c1` [2-{[2-(2-bromo-4-methylphenoxy)ethyl]sulfanyl}pyrimidine]: the remaining activity at 3.75 µM in test [1] (Well no.=6035, high concentration screen) stood at 94.6%. In addition, the remaining activity at 1.25 µM in test [2] (Well no.=6035, low concentration screen) turned out to be 95.4%.

`CCCCCCCC/C=C\CCCCCCC(O)C(=O)O` (stereo not shown) [2OHOA]: the remaining activity at 3.75 µM in test [1] (Well no.=5534, high concentration screen) was 96.7%. The remaining activity at 1.25 µM in test [2] (Well no.=5534, low concentration screen) turned out to be 97.8%.

As for `N/C(=N\C(=O)c1nc(Cl)c(N)nc1N)NCc1ccc(Cl)c(Cl)c1` [3',4'-Dichlorobenzamil], the remaining activity at 3.75 µM in test [1] (Well no.=440, high concentration screen) worked out at 88.3%. In addition, in test [2] (Well no.=440, low concentration screen), the remaining activity at 1.25 µM was 99.5%.

On to `[N-]=[N+]=N[C@H]1[C@@H](O)[C@H](n2cc(F)c(N)nc2=O)O[C@@H]1CO` [3'-Azido-3'-deoxy-5-fluorocytidine], for which, in test [1] (Well no.=7910, high concentration screen), the remaining activity at 3.75 µM amounted to 95%. The remaining activity at 1.25 µM in test [2] (Well no.=7910, low concentration screen) was found to be 96.3%.

On to `Cc1cn([C@@H]2O[C@H](CO)[C@@H](N=[N+]=[N-])[C@H]2O)c(=O)nc1N` [3'-Azido-3'-deoxy-5-methylcytidine], for which, in test [1] (Well no.=7804, high concentration screen), the remaining activity at 3.75 µM was determined as 97.5%. The remaining activity at 1.25 µM in test [2] (Well no.=7804, low concentration screen) came to 98.2%.

`[N-]=[N+]=N[C@@H]1[C@H](O)[C@@H](n2ccc(=O)[nH]c2=O)O[C@H]1CO` [3'-Azido-3'-deoxy-beta-L-uridine]: the remaining activity at 3.75 µM in test [1] (Well no.=7758, high concentration screen) amounted to 102%. The remaining activity at 1.25 µM in test [2] (Well no.=7758, low concentration screen) turned out to be 97.9%.

Regarding `O=c1oc(Cl)c(Cl)c2ccccc12` [3,4-Dichloroisocoumarin], the remaining activity at 3.75 µM in test [1] (Well no.=582, high concentration screen) was determined as 103%. Further, in test [2] (Well no.=582, low concentration screen), the remaining activity at 1.25 µM stood at 100%.

Take `O=C(O)Cc1ccc(O)c(O)c1` [3,4-Dihydroxybenzeneacetic acid]: in test [1] (Well no.=6355, high concentration screen), the remaining activity at 3.75 µM is 106%. Further, the remaining activity at 1.25 µM in test [2] (Well no.=6355, low concentration screen) was determined as 104%.

For `O=C(O)Cc1ccc(O)c(O)c1` [3,4-Dihydroxyphenylacetic acid], the remaining activity at 3.75 µM in test [1] (Well no.=442, high concentration screen) came to 104%. Further, in test [2] (Well no.=442, low concentration screen), the remaining activity at 1.25 µM is 103%.

Turning to `COc1ccc(CC(=O)O)cc1OC` [3,4-Dimethoxyphenylacetic acid], in test [1] (Well no.=6639, high concentration screen), the remaining activity at 3.75 µM is 104%. In addition, the remaining activity at 1.25 µM in test [2] (Well no.=6639, low concentration screen) was found to be 103%.

Take `O=C(O)c1cc(O)cc(O)c1` [3,5-Dihydroxybenzoic acid]: the remaining activity at 3.75 µM in test [1] (Well no.=6829, high concentration screen) came to 117%. The remaining activity at 1.25 µM in test [2] (Well no.=6829, low concentration screen) worked out at 101%.

For the compound `C#CCn1c(=O)c2c(ncn2C)n(C)c1=O` [3,7-Dimethyl-I-propargylxanthine], the remaining activity at 3.75 µM in test [1] (Well no.=498, high concentration screen) turned out to be 97.4%. Further, the remaining activity at 1.25 µM in test [2] (Well no.=498, low concentration screen) amounted to 99.2%.

As for `CC(C)=CCc1cc2c(cc1O)oc(=O)c1c3ccc(O)cc3oc21` [3,9-dihydroxy-2-(3-methyl-2-butenyl)-6H-[1]benzofuro[3,2-c]chromen-6-one], in test [1] (Well no.=6091, high concentration screen), the remaining activity at 3.75 µM was found to be 87.9%. For the same compound, in test [2] (Well no.=6091, low concentration screen), the remaining activity at 1.25 µM stood at 95.4%.

Take `CN(C)c1ccnc2sc3c(=O)n(N4CCCCCC4)cnc3c12` [3-(1-azepanyl)-9-(dimethylamino)pyrido[3',2':4,5]thieno[3,2-d]pyrimidin-4(3H)-one]: in test [1] (Well no.=5949, high concentration screen), the remaining activity at 3.75 µM is 93.5%. For the same compound, the remaining activity at 1.25 µM in test [2] (Well no.=5949, low concentration screen) is 92.3%.

For `Fc1ccc(C(OCCCc2cnc[nH]2)c2ccc(F)cc2)cc1` [3-(1H-Imidazol-4-yl)propyl di(p-fluorophenyl)methyl ether hydrochloride], the remaining activity at 3.75 µM in test [1] (Well no.=1019, high concentration screen) was 95.3%. Further, the remaining activity at 1.25 µM in test [2] (Well no.=1019, low concentration screen) was found to be 93.6%.

As to `N#Cc1cccc(-c2c[nH]c3ncnc(N4CCOCC4)c23)c1` [3-(4-morpholino-7H-pyrrolo[2,3-d]pyrimidin-5-yl)benzonitrile], the remaining activity at 3.75 µM in test [1] (Well no.=5684, high concentration screen) was 99.8%. For the same compound, the remaining activity at 1.25 µM in test [2] (Well no.=5684, low concentration screen) came to 97.4%.

As for `Cc1cccc(-c2nn(C(=S)Nc3ccccc3)cc2-c2ccnc3ccccc23)n1` [3-(6-methyl-2-pyridinyl)-N-phenyl-4-(4-quinolinyl)-1H-pyrazole-1-carbothioamide], in test [1], the remaining activity at 3.75 µM worked out at 100%. For the same compound, the remaining activity at 1.25 µM in test [2] was 99.2%.

Consider `COc1ccc(C(=O)Nc2c(Cl)cncc2Cl)cc1OC1CCCC1` [3-(cyclopentyloxy)-N-(3,5-dichloro-4-pyridinyl)-4-methoxybenzamide], for which, in test [1] (Well no.=5876, high concentration screen), the remaining activity at 3.75 µM stood at 104%. Further, the remaining activity at 1.25 µM in test [2] (Well no.=5876, low concentration screen) was found to be 105%.

On to `NCCCS(=O)(=O)O` [3-Amino-1-propanesulfonic acid sodium], for which the remaining activity at 3.75 µM in test [1] (Well no.=301, high concentration screen) amounted to 98.1%. In test [2] (Well no.=301, low concentration screen), the remaining activity at 1.25 µM was 98%.

`CC(CN)C(=O)O` (stereo not shown) [3-Amino-2-methylpropanoic acid]: the remaining activity at 3.75 µM in test [1] (Well no.=6787, high concentration screen) was determined as 97.6%. Moreover, in test [2] (Well no.=6787, low concentration screen), the remaining activity at 1.25 µM is 101%.

For `CC(C)C(N)CC(=O)O` (stereo not shown) [3-Amino-4-methylpentanoic acid], the remaining activity at 3.75 µM in test [1] (Well no.=6403, high concentration screen) was determined as 105%. In addition, in test [2] (Well no.=6403, low concentration screen), the remaining activity at 1.25 µM came to 103%.

Take `O=C(O)/C=C/C(=O)O` [3-Aminopropionitrile fumarate]: the remaining activity at 3.75 µM in test [1] (Well no.=251, high concentration screen) was found to be 93.7%. Besides, the remaining activity at 1.25 µM in test [2] (Well no.=251, low concentration screen) came to 92.7%.

For `NCCCP(=O)(O)O` [3-Aminopropylphosphonic acid], the remaining activity at 3.75 µM in test [1] (Well no.=357, high concentration screen) is 93.7%. Also, the remaining activity at 1.25 µM in test [2] (Well no.=357, low concentration screen) was found to be 90.6%.

For `O=C(O)/C=C/c1c[nH]c2ccccc12` [3-Beta-Indoleacrylic acid], in test [1] (Well no.=3773, high concentration screen), the remaining activity at 3.75 µM came out at 101%. In addition, the remaining activity at 1.25 µM in test [2] (Well no.=3773, low concentration screen) was 99%.

Turning to `O=[N+]([O-])c1cccc2c(Br)[nH]nc12` [3-Bromo-7-nitroindazole], the remaining activity at 3.75 µM in test [1] (Well no.=27, high concentration screen) turned out to be 96.1%. The remaining activity at 1.25 µM in test [2] (Well no.=27, low concentration screen) was 98.5%.

With `N[C@@H](Cc1ccc(O)c(Cl)c1)C(=O)O` [3-Chloro-L-tyrosine], the remaining activity at 3.75 µM in test [1] (Well no.=7491, high concentration screen) was determined as 101%. Besides, the remaining activity at 1.25 µM in test [2] (Well no.=7491, low concentration screen) is 101%.

Take `Nc1nccc2c1ncn2[C@@H]1O[C@H](CO)[C@@H](O)[C@H]1O` [3-Deazaadenosine (hydrochloride)]: the remaining activity at 3.75 µM in test [1] (Well no.=7808, high concentration screen) is 92.6%. The remaining activity at 1.25 µM in test [2] (Well no.=7808, low concentration screen) came out at 96.7%.

In the case of `Nc1c(O)cccc1C(=O)O` [3-Hydroxyanthranilic acid], the remaining activity at 3.75 µM in test [1] (Well no.=6535, high concentration screen) stood at 91.9%. For the same compound, in test [2] (Well no.=6535, low concentration screen), the remaining activity at 1.25 µM stood at 102%.

In the case of `NNCc1cccc(O)c1` [3-Hydroxybenzylhydrazine dihydrochloride], in test [1] (Well no.=568, high concentration screen), the remaining activity at 3.75 µM was 97.9%. Further, the remaining activity at 1.25 µM in test [2] (Well no.=568, low concentration screen) turned out to be 104%.

`CC(O)CC(=O)O` (stereo not shown) [3-Hydroxybutyric acid]: in test [1] (Well no.=7117, high concentration screen), the remaining activity at 3.75 µM is 99%. Further, the remaining activity at 1.25 µM in test [2] (Well no.=7117, low concentration screen) is 103%.
